Data published in the NIST ThermoML archive (doi:10.1021/je400055v).

Experiment: xn = mol fraction of the nth substance listed
Conditions: Liquid, Vibrating tube method, x1 = 0.4891

Cc1cccc(O)c1 [3-methylphenol] + Cc1ccccc1O
Conditions	mass density [kg/m3]
343.04 K, 103.66 kPa	998.4
343.04 K, 208.53 kPa	999
343.04 K, 305.8 kPa	999.7
343.04 K, 406.72 kPa	1000.3
343.04 K, 510.78 kPa	1001
343.04 K, 609.67 kPa	1001.6
343.04 K, 711.4 kPa	1002.3
343.04 K, 812.12 kPa	1002.9
343.04 K, 912.13 kPa	1003.5
343.04 K, 1014 kPa	1004.1
343.04 K, 1115.1 kPa	1004.8
343.04 K, 1220.8 kPa	1005.4
343.04 K, 1318.1 kPa	1006
343.04 K, 1420.7 kPa	1006.6
343.04 K, 1520.6 kPa	1007.2
343.04 K, 1621 kPa	1007.9
343.04 K, 1722.2 kPa	1008.4
343.04 K, 1824.6 kPa	1009.1
343.04 K, 1925.9 kPa	1009.7
343.04 K, 2028.3 kPa	1010.2
343.04 K, 2130 kPa	1010.8
343.04 K, 2233.9 kPa	1011.4
343.04 K, 2330.6 kPa	1011.9
343.04 K, 2432 kPa	1012.5
343.04 K, 2536.8 kPa	1013.1
352.98 K, 105.78 kPa	990
352.98 K, 204.88 kPa	990.6
352.98 K, 305.29 kPa	991.3
352.98 K, 408.64 kPa	992
352.98 K, 509.16 kPa	992.6
352.98 K, 610.18 kPa	993.3
352.98 K, 707.96 kPa	993.9
352.98 K, 810.8 kPa	994.7
352.98 K, 913.45 kPa	995.3
352.98 K, 1013.5 kPa	996
352.98 K, 1116.7 kPa	996.6
352.98 K, 1217.9 kPa	997.2
352.98 K, 1316.1 kPa	997.9
352.98 K, 1418 kPa	998.5
352.98 K, 1519.3 kPa	999.1
352.98 K, 1623.4 kPa	999.8
352.98 K, 1723.3 kPa	1000.4
352.98 K, 1821.8 kPa	1001
352.98 K, 1928 kPa	1001.7
352.98 K, 2027.3 kPa	1002.3
352.98 K, 2129.3 kPa	1002.9
352.98 K, 2237.1 kPa	1003.5
352.98 K, 2331.9 kPa	1004.2
352.98 K, 2437.8 kPa	1004.8
352.98 K, 2536.4 kPa	1005.4
362.91 K, 106.69 kPa	981.5
362.91 K, 203.97 kPa	982.2
362.91 K, 305.9 kPa	982.9
362.91 K, 407.53 kPa	983.6
362.91 K, 510.78 kPa	984.3
362.91 K, 608.36 kPa	985
362.91 K, 708.57 kPa	985.7
362.91 K, 811.21 kPa	986.3
362.91 K, 912.33 kPa	987
362.91 K, 1013.1 kPa	987.7
362.91 K, 1114.2 kPa	988.3
362.91 K, 1215.1 kPa	989
362.91 K, 1318.3 kPa	989.7
362.91 K, 1418.7 kPa	990.3
362.91 K, 1520.8 kPa	991
362.91 K, 1622.2 kPa	991.7
362.91 K, 1723.8 kPa	992.3
362.91 K, 1825.8 kPa	993
362.91 K, 1926.1 kPa	993.6
362.91 K, 2030.7 kPa	994.3
362.91 K, 2128.7 kPa	994.9
362.91 K, 2230.1 kPa	995.5
362.91 K, 2332.4 kPa	996.2
362.91 K, 2434.6 kPa	996.8
362.91 K, 2536.1 kPa	997.5
